Data from ChEMBL document CHEMBL5096199, “Structure-Based Optimization of Small Molecule Human Galactokinase Inhibitors” (J Med Chem, 2021).
In brackets after ≈: the same amount, converted by molar mass.

How the values were obtained:
Galactokinase = Galactokinase (Homo sapiens, UniProt P51570); test: Inhibition of recombinant human GALK1 using galactose as substrate incubated for 1 hrs in the presence of ATP by Kinase-Glo reagent based luminescence assay
[1] = Metabolic stability in mouse liver microsome assessed as half life; assay type: ADME; settings: microsomes
[2] = Metabolic stability in human liver microsomes assessed as half life; assay type: ADME, Microsome
[3] = Permeability of the compound at pH 7.4 measured after 30 mins by PAMPA based LC/MS analysis; assay type: ADME; settings: for Papp at 0.5 h: PAMPA, pH 7.4, read-out: permeability
physchem = settings: phosphate buffer, pH 7.4
Description: Kinetic solubility of the compound in phosphate buffer at pH 7.4 at 150 uM incubated for 6 hrs by shake-flask method

Galactokinase, sequence (P51570 whole entry): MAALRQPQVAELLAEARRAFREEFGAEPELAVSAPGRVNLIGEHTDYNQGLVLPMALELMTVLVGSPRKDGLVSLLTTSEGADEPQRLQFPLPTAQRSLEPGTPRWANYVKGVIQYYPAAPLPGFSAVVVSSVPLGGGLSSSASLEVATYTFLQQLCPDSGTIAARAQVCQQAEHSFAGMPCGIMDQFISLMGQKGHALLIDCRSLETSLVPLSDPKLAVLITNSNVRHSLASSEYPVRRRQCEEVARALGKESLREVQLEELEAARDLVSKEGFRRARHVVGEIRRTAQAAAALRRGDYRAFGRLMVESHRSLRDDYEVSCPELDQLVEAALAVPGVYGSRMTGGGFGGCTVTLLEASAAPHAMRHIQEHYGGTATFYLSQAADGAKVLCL

| IC50 (Galactokinase; read-out: pIC50 (converted)) [µM] | Compound | further results |
| --- | --- | --- |
| 19.5 | COc1ccc2nc(NC3=NC(c4ccccc4Cl)C(C(=O)Nc4cc(C(=O)O)ccn4)=C(C)N3)oc2c1 (stereo unspecified) | – |
| 3.72 | CC1=C(C(=O)NCc2ccc(C(=O)O)cc2)C(c2ccccc2Cl)N=C(Nc2nc3ccccc3o2)N1 (stereo unspecified) | – |
| 3.72 | CC1=C(C(=O)Nc2nncs2)C(c2ccccc2Cl)N=C(Nc2nc3ccccc3o2)N1 (stereo unspecified) | IC50 (Galactokinase; read-out: IC50): 3.43 µM |
| 9.33 | CC1=C(C(=O)Nc2cc(C(=O)O)ccn2)C(c2ccccc2Cl)N=C(Nc2nc3c(C)cccc3o2)N1 (stereo unspecified) | – |
| 4.47 | COC(=O)c1ccc(NC(=O)C2=C(C)NC(Nc3nc4ccccc4o3)=NC2c2ccccc2Cl)cc1 (stereo unspecified) | IC50 (Galactokinase; read-out: IC50): 4.32 µM |
| 6.61 | CC1=C(C(=O)Nc2cccnc2)C(c2ccccc2Cl)N=C(Nc2nc3ccccc3o2)N1 (stereo unspecified) | – |
| 0.933 | CC1=C(C(=O)Nc2cc(C(=O)O)ccn2)C(c2ccccc2Cl)N=C(Nc2nc3cccc(C)c3o2)N1 (stereo unspecified) | – |
| 9.33 | CC1=C(C(=O)NCc2cccc(C(=O)O)c2)C(c2ccccc2Cl)N=C(Nc2nc3ccccc3o2)N1 (stereo unspecified) | – |
| 3.72 | CC1=C(C(=O)Nc2ccc(O)cc2)C(c2ccccc2Cl)N=C(Nc2nc3ccccc3o2)N1 (stereo unspecified) | – |
| 1.05 | CC1=C(C(=O)Nc2cc(C(=O)O)ccn2)C(c2ccc(Cl)cc2Cl)N=C(Nc2nc3ccc(F)cc3o2)N1 (stereo unspecified) | – |
| 10.5 | CC1=C(C(=O)Nc2ccccc2)C(c2ccccc2Cl)N=C(Nc2nc3ccccc3o2)N1 (stereo unspecified) | – |

The next lines start with the molecule.

| Compound | IC50 (Galactokinase; read-out: pIC50 (converted)) [µM] | further results |
| --- | --- | --- |
| CC1=C(C(=O)NCc2cccc(CO)c2)C(c2ccccc2Cl)N=C(Nc2nc3ccccc3o2)N1 (stereo unspecified) | 4.68 | – |
| CC1=C(C(=O)NCc2cn(C)cn2)C(c2ccccc2Cl)N=C(Nc2nc3ccccc3o2)N1 (stereo unspecified) | 1.05 | – |
| CCn1cc(CNC(=O)C2=C(C)NC(Nc3nc4ccc(F)c(N)c4o3)=NC2c2ccc(C)cc2Cl)cn1 (racemic) | – | IC50 (Galactokinase; read-out: IC50): 0.048 µM; t1/2 [1]: 14 min; t1/2 [2]: 8 min; Papp at 0.5 h [3]: 410 ×10⁻⁶ cm/s; solubility kinetic at 6 h, 150 µM (physchem): < 1 µg/mL |
| CC1=C(C(=O)Nc2cc(C(=O)O)ccn2)C(c2ccccc2Cl)N=C(Nc2nc3cc(Cl)ccc3o2)N1 (stereo unspecified) | 2.63 | – |
| CC1=C(C(=O)NCc2ccc(CO)cc2)C(c2ccccc2Cl)N=C(Nc2nc3ccccc3o2)N1 (stereo unspecified) | 6.61 | – |
| CCn1cc(CNC(=O)C2=C(C)NC(Nc3nc4cccc(N)c4o3)=NC2c2ccc(C)cc2Cl)cn1 (racemic) | – | t1/2 [2]: 120 min; Papp at 0.5 h [3]: 632 ×10⁻⁶ cm/s; solubility kinetic at 6 h, 150 µM (physchem): 2.4 µg/mL (≈ 4.62 µM) |
| CC1=C(C(=O)NCc2cnn(C)c2)C(c2ccc(C)cc2Cl)N=C(Nc2nc3cccc(N)c3o2)N1 (racemic) | 0.209 | t1/2 [1]: 11 min; t1/2 [2]: 32 min; permeability ([3]; pampa, pH 7.4, 0.5 h): 315 10^-6 cm/s; solubility kinetic at 6 h, 150 µM (physchem): 8.3 µg/mL (≈ 16.4 µM) |
| CC1=C(C(=O)Nc2cccc(CO)c2)C(c2ccccc2Cl)N=C(Nc2nc3ccccc3o2)N1 (stereo unspecified) | 4.17 | – |
